# Experimental data published in patent US5037830A, “Novel thiouracyl derivatives, pharmaceutical compositions containing them and process for preparing same” (Richter Gedeon Vegyeszeti Gyar RT, priority 1989, dated 1991).
# How the values were obtained:
# [1] = tested on: necrosis induced by ethanol containing hydrochloric acid; test: Cytoprotective effect (modified Robert's test); type: in vivo; conditions: for Bleedings, change: vs control; for ED50: po, cytoprotection
# Method: The modified Robert's test [Gastroenterology 17, 761 (1979)] was used. The necrotizing agent (100 ml of abs. ethanol containing 2 ml of concentrated hydrochloric acid) was orally administered in a volume of 0.5 ml/100 g by 30 minutes after giving the compound to be tested. (12 animals were used for each dose.) After 1 hour the animals were killed by ether and the bleedings on the glandular part of their stomach were evaluated.
# [2] = tested on: pentagastrin-induced gastric acid secretion; test: Inhibition of the pentagastrin-induced gastric acid secretion in dogs; type: in vivo, Beagle dogs
# Method: (§1) After being starved for 24 hours, Beagle dogs of both sexes weighing 6.3 to 11.9 kg were anaesthetized with sodium pentobarbital (30 mg/kg i.v.). The trachea and femoral veins on both sides were cannulated. After laparotomy the pylorus was ligated, a glass cannula was placed into the anterior side of the stomach and fixed by a purse string suture to the stomach wall, abdominal wall and abdominal skin. A rubber probe was introduced to the stomach through the mouth. The animal thus prepared was put onto a Pavlov's frame. The steady sleep was ensured by the infusion of sodium pentobarbital (5 mg/kg/hour). The stomach was washed with lukewarm water and emptied. The secretion-inducing agents (histamine, pentagastrin, carbachol) were administered in a volume of 12 ml/hour for 2 hours in the following doses:
# (§2) After 2 hours the infusion was stopped, the volume of the gastric juice produced was measured and its acid content was determined by titration with 0.1N NaOH by using Topfer's indicator. The compound of Example 1 was administered in a 25 mg/kg i.p. dose to the animals by 30 minutes before starting the infusion.
# [3] = tested on: histamine-induced gastric acid secretion; test: Inhibition of the histamine-induced gastric acid secretion in dogs; type: in vivo, Beagle dogs
# Method: as §1, §2
# [4] = tested on: indomethacin-induced gastric ulcer; test: Inhibition of the indomethacin-induced gastric ulcer; type: in vivo, female RG-Wistar rats; conditions: for ED50: Rattus norvegicus, po, indomethacin 20 mg/kg orally
# Method: After being starved for 24 hours, female RG-Wistar rats were orally treated with the compounds to be tested and then orally with 20 mg/kg of indomethacin after 30 minutes. The evaluation was carried out in relation to the control group and the ED50 values were determined.
# [5] = tested on: carbachol-induced gastric acid secretion; test: Inhibition of the carbachol-induced gastric acid secretion in dogs; type: in vivo, Beagle dogs
# Method: as §1, §2
# [6] = 25 mg/kg i.p. + Pentagastrin 0.03 mg/kg/hr
# [7] = 25 mg/kg i.p. + Histamine 0.1 mg/kg/hr
# [8] = 25 mg/kg i.p. + Carbachol 0.02 mg/kg/hr
compound,measurement,setting,value
"Cc1cc(=O)[nH]c(SCc2ccccc2N(C)C)n1 [Example 1, 2-(2-dimethylaminobenzyl)thio-6-methyl-4(3H)-pyrimidinone]","Bleedings, treated",[1]; 10 mg/kg p.o.,62.0 mm
same,"Bleedings, change",[1]; 10 mg/kg p.o.,-38.7%
same,"Bleedings, treated",[1]; 20 mg/kg p.o.,42.1 mm
same,"Bleedings, change",[1]; 20 mg/kg p.o.,-56.9%
same,"Bleedings, treated",[1]; 40 mg/kg p.o.,10.9 mm
same,"Bleedings, change",[1]; 40 mg/kg p.o.,-89.6%
same,ED50,[1],14.5 mg/kg
same,Gastric acid volume,[2]; [6],1.43 ± 0.77 ml/kg/2 hr
same,"Gastric acid, change",[2]; [6],-76%
same,Gastric juice volume,[2]; [6],2.90 ± 0.48 ml/kg/2 hr
same,"Gastric juice, change",[2]; [6],-54%
same,"inhibition of gastric acid secretion, in words","[2]; dogs compared with rats, pentagastrin",with the same efficiency in dogs as in rats
same,Gastric acid volume,[3]; [7],3.90 ml/kg/2 hr
same,"Gastric acid, change",[3]; [7],-75%
same,Gastric juice volume,[3]; [7],3.85 ml/kg/2 hr
same,"Gastric juice, change",[3]; [7],-69%
same,"inhibition of gastric acid secretion, in words","[3]; dogs compared with rats, histamine",with the same efficiency in dogs as in rats
same,ED50,[4],8.2 mg/kg
same,"ulcer inhibition, in words",[4]; compared with reference drugs,significantly stronger inhibited
same,Gastric acid volume,[5]; [8],1.84 ± 0.74 ml/kg/2 hr
same,"Gastric acid, change",[5]; [8],-80%
same,Gastric juice volume,[5]; [8],2.55 ± 0.79 ml/kg/2 hr
same,"Gastric juice, change",[5]; [8],-69%
same,"inhibition of gastric acid secretion, in words","[5]; dogs compared with rats, carbachol",with the same efficiency in dogs as in rats
"CN(C)c1ccccc1C[S+]([O-])c1nc2ccccc2[nH]1 (centres unmarked) [NC-1300, 2-[(2-dimethylaminobenzyl)sulfinyl]-1H-benzimidazole, reference compound]","Bleedings, treated",[1]; 5 mg/kg p.o.,84.4 mm
same,"Bleedings, change",[1]; 5 mg/kg p.o.,-21.7%
same,"Bleedings, treated",[1]; 10 mg/kg p.o.,42.25 mm
same,"Bleedings, change",[1]; 10 mg/kg p.o.,-60.8%
same,"Bleedings, treated",[1]; 20 mg/kg p.o.,11.65 mm
same,"Bleedings, change",[1]; 20 mg/kg p.o.,-86.0%
same,ED50,[1],8.6 mg/kg
same,ED50,[4],8.4 mg/kg
